Values after ≈ are worked out from the molar mass of the structure shown. Where a SMILES comes first, the peptide text is derived from it. Bridges are numbered along the chain shown (N, C = ends). [ ]: non-standard residue; d: D form. The star is where a group is joined. X14 = O=C(c1ccc(C(F)(F)F)cn1)*; X51 = O=C(c1cc(Cl)nc(Cl)c1)*; X52 = O=C(c1nc2ccccc2s1)*; X48 = O=C(c1ccc(Cl)nc1)*; Dab = NCC[C@H](N)C(=O)O; Abu = CC[C@H](N)C(=O)O; Dap = NC[C@H](N)C(=O)O
Tests used:
[1] = test system: Acinetobacter baumannii ATCC 17978; format: cell-based; settings: A. baumannii ATCC 17978; CAMHB broth microdilution
Procedure, shortened: (§1)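 Broth microdilution, CAMHB, per CLSI M100-S24; lipopeptides as TFA salts; polymyxin B sulphate control. Read-out: MIC. Strains are polymyxin-susceptible; PA022 and AB034 are MDR clinical isolates.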

[2] = test system: Acinetobacter baumannii FADDI-AB034; format: cell-based; settings: A. baumannii FADDI-AB034; CAMHB broth microdilution
Procedure, shortened: as §1

[3] = test system: Enterobacter cloacae FADDI-EC001; format: cell-based; settings: E. cloacae FADDI-EC001; CAMHB broth microdilution
Procedure, shortened: (§2)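 Following CLSI procedure M100-S24, minimum inhibitory concentrations of trifluoroacetate lipopeptides are measured in cation-adjusted Mueller-Hinton medium by broth microdilution, alongside a polymyxin B sulphate control.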

[4] = test system: Enterobacter cloacae FADDI-EC003; format: cell-based; settings: E. cloacae FADDI-EC003; CAMHB broth microdilution
Procedure, shortened: as §1

[5] = test system: Enterobacter cloacae FADDI-EC006; format: cell-based; settings: E. cloacae FADDI-EC006; CAMHB broth microdilution
Procedure, shortened: as §1

[6] = test system: Klebsiella pneumoniae FADDI-KP022; format: cell-based; settings: K. pneumoniae FADDI-KP022; CAMHB broth microdilution
Procedure, shortened: as §1

[7] = test system: Klebsiella pneumoniae FADDI-KP032; format: cell-based; settings: K. pneumoniae FADDI-KP032; CAMHB broth microdilution
Procedure, shortened: as §1

[8] = test system: Klebsiella pneumoniae Kp BM1; format: cell-based; settings: K. pneumoniae Kp BM1; CAMHB broth microdilution
Procedure, shortened: as §2

[9] = test system: Pseudomonas aeruginosa ATCC 27853; format: cell-based; settings: P. aeruginosa ATCC 27853; CAMHB broth microdilution
Procedure, shortened: as §1

[10] = test system: Pseudomonas aeruginosa FADDI-PA01; format: cell-based; settings: P. aeruginosa FADDI-PA01; CAMHB broth microdilution
Procedure, shortened: as §1

[11] = test system: Pseudomonas aeruginosa FADDI-PA022; format: cell-based; settings: P. aeruginosa FADDI-PA022; CAMHB broth microdilution
Procedure, shortened: as §1

[12] = test system: Pseudomonas aeruginosa FADDI-PA038; format: cell-based; settings: P. aeruginosa FADDI-PA038; CAMHB broth microdilution
Procedure, shortened: as §1

[13] = test system: Acinetobacter baumannii FADDI-AB030; assay: microbe, parasite or virus in culture; format: cell-based; settings: A. baumannii FADDI-AB030; CAMHB broth microdilution
Procedure, shortened: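 Lipopeptide TFA salts tested against the multidrug-resistant clinical isolate by CLSI (M100-S24) broth microdilution in cation-adjusted Mueller-Hinton broth, with polymyxin B sulphate as control; MIC read.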

[14] = test system: mouse kidney; assay: Nephrotoxicity in a mouse model (kidney histology); format: in vivo; settings: for Max Overall Kidney Histological Score / Max Kidney Histological Score: mice (n=3), subcutaneous 12 mg/kg free base every 2 h, 6 doses in one day; for Max Overall Kidney Histological Score: kidney ~20 h after last dose; for Max Kidney Histological Score: semiquantitative score 0 to +5
Method: Polymyxin B sulphate and colistin sulphate were supplied by Betapharma (Shanghai Co., Ltd, China). Stock solutions of compounds in saline (5 mg base/mL) were stored at 4° C. before use. Mice (n=3) were subcutaneously administered with the compound at 12 mg/kg of the free base form every 2 h, 6 doses in one day. At approximately 20 h after the last dose, mice were euthanised by inhalation of an overdose of isoflurane. Immediately after blood sampling, the right kidney from each mouse was collected immediately and placed in 10% formalin in 5 mL plastic tubes and the left kidney placed in a pre-weighed 14 mL plastic tubes, weighed again and stored at −20° C. pending homogenization and analysis of polymyxin B and colistin. The frozen kidney samples were thawed, homogenized in 2 mL of Milli-Q water and stored in a −20° C. freezer. The formalin-fixed kidneys were then sent to the Australian Phenomics Network-Histopathology and Organ Pathology (The University of Melbourne, Parkville, Australia) for histological examination. Samples were examined by a pathologist who was blind to the treatment groups.
Lesions were rated as follows: mild acute tubular damage with tubular dilation, prominent nuclei and a few pale tubular casts (Grade 1); severe acute tubular damage with necrosis of tubular epithelial cells and numerous tubular casts (Grade 2); acute cortical necrosis/infarction of tubules and glomeruli with or without papillary necrosis (Grade 3). The grades were given the following scores: grade 1=1, grade 2=4, and grade 3=10. The percentage of area of the kidney slice showing histological damage was scored as follows: <1%=0, 1 to <5%=1, 5 to <10%=2, 10 to <20%=3, 20 to <30%=4, 30 to <40%=5, and >40%=6. The overall kidney histological score was calculated as the product of the percentage score and grade score. These scores were then expressed as a semiquantitative score (Kidney Histological Score) on a scale of 0 to +5 for renal histological changes. These scores were assigned as follows: SQS 0=no significant change (overall score, <1); SQS +1=mild damage (overall score, 1 to <15); SQS +2=mild to moderate damage (overall score, 15 to <30); SQS +3=moderate damage (overall score, 30 to <45); SQS +4=moderate to severe damage (overall score, 45 to <60); and SQS +5=severe damage (overall score, ≥60) (Yousef, J., et al., (2011) Antimicrob. Agents and Chemother. 55 (9), 4044-4049).
Any compound with a kidney histological score of ≤+1.0 is considered to have a low nephrotoxicity in this model.

Compound | Minimum inhibitory concentration [1] [µg/mL] | Minimum inhibitory concentration [2] [µg/mL] | Minimum inhibitory concentration [3] [µg/mL] | Minimum inhibitory concentration [4] [µg/mL] | Minimum inhibitory concentration [5] [µg/mL] | Minimum inhibitory concentration [6] [µg/mL] | Minimum inhibitory concentration [7] [µg/mL] | Minimum inhibitory concentration [8] [µg/mL] | Minimum inhibitory concentration [9] [µg/mL] | Minimum inhibitory concentration [10] [µg/mL] | Minimum inhibitory concentration [11] [µg/mL] | Minimum inhibitory concentration [12] [µg/mL] | Minimum inhibitory concentration [13] [µg/mL] | Max Overall Kidney Histological Score [14] | Max Kidney Histological Score [14] | nephrotoxicity in the mouse model (in words) ([14]; 12 mg/kg every 2 h, 6 doses, subcutaneous)
CC[C@@H]1NC(=O)[C@@H](CC(C)C)NC(=O)[C@H](CCN)NC(=O)[C@@H](NC(=O)[C@H](CN)NC(=O)[C@@H](NC(=O)[C@H](CCN)NC(=O)c2nc3ccccc3s2)[C@@H](C)O)CCNC(=O)[C@H]([C@@H](C)O)NC(=O)[C@H](CCN)NC(=O)[C@H](CCN)NC1=O [Compound 70] (X52-[Dab]T[Dap][Dab][Dab][dL][Abu][Dab][Dab]T; lactam 4-C) | 0.5 (≈ 0.435 µM) | 1 (≈ 0.871 µM) | 0.25 (≈ 0.218 µM) | 0.25 (≈ 0.218 µM) | 0.25 (≈ 0.218 µM) | <0.125 | <0.125 | <0.125 | 0.5 (≈ 0.435 µM) | 0.25 (≈ 0.218 µM) | 0.5 (≈ 0.435 µM) | 1 (≈ 0.871 µM) | 0.5 (≈ 0.435 µM) | 0.0 | 0 (SQS 0=no significant change (overall score, <1)) | 
CC[C@@H]1NC(=O)[C@@H](CC(C)C)NC(=O)[C@H](CCN)NC(=O)[C@@H](NC(=O)[C@H](CN)NC(=O)[C@@H](NC(=O)[C@H](CCN)NC(=O)c2ccc(Cl)nc2)[C@@H](C)O)CCNC(=O)[C@H]([C@@H](C)O)NC(=O)[C@H](CCN)NC(=O)[C@H](CCN)NC1=O [Compound 4] (X48-[Dab]T[Dap][Dab][Dab][dL][Abu][Dab][Dab]T; lactam 4-C) | 1 (≈ 0.888 µM) | 1 (≈ 0.888 µM) | 2 (≈ 1.78 µM) | 0.5 (≈ 0.444 µM) | 4 (≈ 3.55 µM) | 0.5 (≈ 0.444 µM) | 1 (≈ 0.888 µM) | 2 (≈ 1.78 µM) | 0.5 (≈ 0.444 µM) | 0.5 (≈ 0.444 µM) | 1 (≈ 0.888 µM) | 1 (≈ 0.888 µM) | 2 (≈ 1.78 µM) | 0.0 | 0 (SQS 0=no significant change (overall score, <1)) | 
CC[C@@H]1NC(=O)[C@@H](CC(C)C)NC(=O)[C@H](CCN)NC(=O)[C@@H](NC(=O)[C@H](CN)NC(=O)[C@@H](NC(=O)[C@H](CCN)NC(=O)c2ccc(C(F)(F)F)cn2)[C@@H](C)O)CCNC(=O)[C@H]([C@@H](C)O)NC(=O)[C@H](CCN)NC(=O)[C@H](CCN)NC1=O [Compound 38] (X14-[Dab]T[Dap][Dab][Dab][dL][Abu][Dab][Dab]T; lactam 4-C) | 1 (≈ 0.862 µM) | 0.25 (≈ 0.215 µM) | <0.125 | 0.25 (≈ 0.215 µM) | 0.25 (≈ 0.215 µM) | 0.25 (≈ 0.215 µM) | <0.125 | <0.125 | 0.25 (≈ 0.215 µM) | 0.25 (≈ 0.215 µM) | 0.25 (≈ 0.215 µM) | 1 (≈ 0.862 µM) | 1 (≈ 0.862 µM) | 0.0 | 0 (SQS 0=no significant change (overall score, <1)) | 
Colistin [reference compound] | 0.5 | 0.5 | 0.25 | <0.125 | <0.125 | 1 | 1 | <0.125 | 1 | 0.5 | 1 | 1 | 0.25 | 60.0 | +5 (SQS +5=severe damage (overall score, ≥60)) | severe nephrotoxicity
CC[C@@H]1NC(=O)[C@@H](CC(C)C)NC(=O)[C@H](CCN)NC(=O)[C@@H](NC(=O)[C@H](CN)NC(=O)[C@@H](NC(=O)[C@H](CCN)NC(=O)c2cc(Cl)nc(Cl)c2)[C@@H](C)O)CCNC(=O)[C@H]([C@@H](C)O)NC(=O)[C@H](CCN)NC(=O)[C@H](CCN)NC1=O [Compound 19] (X51-[Dab]T[Dap][Dab][Dab][dL][Abu][Dab][Dab]T; lactam 4-C) |  |  |  |  |  |  |  |  |  |  |  |  |  | 0.0 | 0 (SQS 0=no significant change (overall score, <1)) | 

Reference: patent publication US11225505B2, “Antimicrobial polymyxin derivative compounds” (MONASH UNIVERSITY, priority 2015, dated 2022)
